Converted amounts (≈) assume the structure as drawn.
How the values were obtained:
P-388 cells = assay: Assay against P-388 cells (lymphoid neoplasm from DBA/2 mouse), cell count after three days; format: cell-based; details: P388, 72 h, 1×10^4 cells per well, three days of incubation, triplicate
Procedure: Compounds were diluted in DMSO/MeOH/Acetone (1:4.5:4.5) and they were tested at different concentrations. The solvent was allowed to evaporate before the cells were seeded.
The following antitumoral assay, employing the current screening protocol has been carried out using the following cell line:
P-388 (lymphoid neoplasm from DBA/2 mouse).
Assay Against P-388 Cells (Lymphoidneoplasm from DBA/2 Mouse )
P-388 cells were seeded into 16 mm wells at 1×10^4 cells per well in 1 ml aliquots of MEM 10C containing different concentrations of the compound. All determinations were carried out in triplicate. A separate set of cultures without drug was counted daily to ensure that the cells remained in exponential growth over the period of observation. After three days of incubation, cells were counted and the IC50 was determined.

thymidylate synthetase = details: background, literature; cited from earlier work
Gram positive bacteria = details: background, literature; cited from earlier work
[1] = background statement, no test described; cited from earlier work

| IC50 (P-388 cells) [µg/mL] | Structure (SMILES) | other results |
| --- | --- | --- |
| 1 (≈ 2.78 µM) | Cc1cc(=O)[nH]c2c1C(=O)c1c(-c3ccc(N(C)C)cc3)ccnc1C2=O [Compound 6, 5-(p-dimethylaminophenyl)-4-methyl-1H-1,8-diazaanthracene-2,9,10-trione] |  |
| 20 (≈ 55.3 µM) | Cc1cc(=O)[nH]c2c1C(=O)C1=C(NC=CC1c1ccc(N(C)C)cc1)C2=O (centres unmarked) [Compound 3, 5-(4-Dimethylamino-phenyl) 4-methyl-5,8-dihydro-1H-1,8-diazaanthracene-2,9,10-trione] |  |
| 0.25 (≈ 0.785 µM) | Cc1cc(=O)[nH]c2c1C(=O)C1=C(NC=CC1c1ccccc1)C2=O (centres unmarked) [Compound 2, 4-methyl-5-phenyl-5,8-dihydro-1H-1,8-diazaanthracene-2,9,10-trione] |  |

The remaining lines, values behind:

| Structure (SMILES) | IC50 (P-388 cells) [µg/mL] | other results |
| --- | --- | --- |
| Cc1cc2c([nH]c1=O)C(=O)c1ccccc1C2=O [Compound 8, 3-Methyl-1H-1azaanthracene-2,9,10-trione] | 0.2 (≈ 0.836 µM) |  |
| CCc1cnc2c(c1)C(=O)c1c(C)cc(=O)[nH]c1C2=O [Compound 5, 6-ethy-4-methyl-1H-1,8-diazaanthracene-2,9,10-trione] | 0.5 (≈ 1.86 µM) |  |
| CCC1C(C)=CNC2=C1C(=O)c1c(C)cc(=O)[nH]c1C2=O (centres unmarked) [Compound 1, 4,6-dimethyl-5-5,8-dihydro-1H-1,8-diazaanthracene-2,9,10-trione] | 1 (≈ 3.52 µM) |  |
| CCc1cc2c([nH]c1=O)C(=O)c1ncc(C)cc1C2=O [Compound 7, 3-ethyl-6-methyl-1H-1,8-diazaanthracene-2,9,10-trione] | 0.2 (≈ 0.746 µM) |  |
| Cc1ccnc2c1C(=O)c1c(C)cc(=O)[nH]c1C2=O [Compound 4, 4,5-dimethyl-1H-1,8-diazaanthracene-2,9,10-trione] | 1 (≈ 3.93 µM) |  |
| CCCc1c2c([nH]c(=O)c1C)C(=O)c1[nH]c(=O)c(C)c(CCC)c1C2=O [Diazaquinomicyn A] |  | capacity to inhibit the thymidylate synthetase (thymidylate synthetase): capacity to inhibit; activity against Gram positive bacteria (Gram positive bacteria): good activity; antitumoral activity [1]: inactive |

From patent publication US5605905A, “Antitumoral compounds” (Universidad Complutense de Madrid, priority 1992, dated 1997)
